Entries after “also recorded” stand apart in the source; their conditions may differ.
Experiments:
[1] = test system: B cell; assay: B cell growth inhibition; format: cell-based
[2] = test system: IL-2 production; assay: Co-stimulation of IL-2 production; format: cell-based
[3] = test system: LC3-II, Bim, PARP, MDM2, XIAP, cIAP, p-p70S6K; assay: Immunoblotting/qPCR of autophagy and apoptosis proteins in MM cells; format: cell-based
Procedure: (§1) MM cells were harvested and lysed using RIPA-lysis buffer (Boston Bioproducts, Ashland, Mass.) containing 5 mM EDTA, 5 mM NaF, 2 mM Na3VO4, 1 mM PMSF, 5 μg/ml leupeptin, and 5 μg/ml aprotinin. Nuclear proteins were extracted using “Nuclear Extraction Kit” (Affimetrix). After the determination of protein concentration using DC protein assay (Bio-Rad, Hercules, Calif.), β-mercaptoethanol (-ME) was added to the whole-cell lysates to a 2% final concentration. The whole cell lysates or nuclear extracts were subjected to SDS-PAGE, transferred to nitrocellulose membranes (Bio-Rad, Hercules, Calif.) or polyvinylidene fluoride membranes (Millipore, Billerica, Mass.), and immunoblotted with indicated Abs. Silver staining was carried out using “SilverQuest Staining Kit®” (Invitrogen), according to manufacturer's protocol.
(§2) RNA was extracted using Trizol (Invitrogen) and quantified by a Nanodrop spectrophotometer (Labtech). Specifically, 5×10^6 cells were pelleted, washed with cold PBS, and resuspended in 1 mL Trizol. They were then incubated with 1-Bromo-3-chloropropane (Sigma), washed first with Isopropyl alcohol and then with 75% Ethanol, and resuspended in Nuclease Free-water (Invitrogen). After quantification, 2000 ng of RNA was used to synthesize cDNA via the Superscript II First strand synthesis Kit (Invitrogen), according to the manufacturer's instructions. To evaluate the expression levels of TP53RK, BCL2L11, MYC, Bim, E2F1, TP53, IKZF1, IKZF3, RRM1, p18CDKN2C, PSMB5, PSMB7, PSMA3 and GAPDH, quantitative real time PCR (QRT-PCR) was performed using SYBR GREEN PCR Master Mix (Applied Biosystem), after optimization of the primer conditions. cDNAs were diluted 1:100 or 1:1000 and amplified in a 20 μL reaction. Primers were used at 200 nM or 400 nM concentration. Thermal cycling conditions were: 10 minutes at 95° C., 40 cycles at 95° C. for 15 seconds, followed by 1 minute at 60° C. Real-time quantitative PCR was performed on ABI Prism 7300 Sequence Detection System (Applied Biosystems). Data were analyzed using the delta delta Ct method. GAPDH was used as an invariant control.

[4] = test system: p53; assay: Immunoblotting of p53 and phosphorylated p53 in MM cells; format: cell-based
Procedure: as §1

[5] = test system: MM cells; assay: Growth inhibition assay (MTT) / viable cell count (Trypan-blue); format: cell-based
Procedure: Cell growth was assessed by measuring 3-(4,5-dimethylthiazol-2-yl)-2,5-diphenyl […] bromide (MTT, Chemicon International, Temecula, Calif.) dye absorbance. Cells were pulsed with 10 μl of 5 mg/ml MTT to each well for the last 4 h of 48 h and/or 72 h cultures, followed by 100 μl isopropanol containing 0.04N HCl. Absorbance was measured at 570/630 nm using a spectrophotometer (Molecular Devices Corp., Sunnyvale Calif.).

[6] = test system: RRM1, p18CDKN2C; assay: RRM1 and p18CDKN2C expression (RT-qPCR, Western blot); format: cell-based; settings: H929 cells
Procedure: as §1, §2

[7] = test system: TP53RK, CRBN; assay: TP53RK and CRBN expression in MM cells (immunoblotting, qPCR); format: cell-based; settings: for TP53RK level: MM.1S cells, 48 h
Procedure: as §1, §2
pLKO.1-based shRNA vectors were obtained from the RNAi Consortium (Broad Institute). […] After 24 h of infection, cells expressing shRNA were selected with puromycin dihydrochloride (Sigma-Aldrich) at 1-2 μg/ml for 48 h, and then examined for proliferation and/or subjected to immunoblotting analysis. For siRNA transfection, scrambled, TP53RK, CRBN, p53, c-Myc and RRM1 siRNAs were purchased from Thermo Scientific (Lafayette, Colo.). siRNA transfection was carried out by Amaxa electroporation system using “Cell Line Nucleofector® Kit V or C” solution (Lonza, Koln, Germany).

[8] = biological target: T1, TP53RK (Homo sapiens, UniProt Q96S44); assay: In vitro TP53RK auto-phosphorylation assay; format: biochemical; settings: dose-dependent; recombinant TP53RK and TPRKB
T1 construct: made in house; host or cells: HEK-293FT (transient calcium phosphate transfection; anti-DDK beads, Superdex 200)
T1 sequence (Q96S44 whole entry, other chains not shown): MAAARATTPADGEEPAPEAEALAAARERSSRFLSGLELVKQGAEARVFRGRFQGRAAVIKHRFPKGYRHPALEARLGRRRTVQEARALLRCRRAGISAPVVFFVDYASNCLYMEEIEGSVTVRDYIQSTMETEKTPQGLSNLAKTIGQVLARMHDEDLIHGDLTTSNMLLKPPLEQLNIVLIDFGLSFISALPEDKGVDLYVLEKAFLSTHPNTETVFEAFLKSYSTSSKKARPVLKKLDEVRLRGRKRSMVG
Description: Full-length TP53RK and TPRKB sequences obtained from OriGene (Rockville, Md.) were cloned and inserted into pCMV6-AC-Myc-DDK. These constructs were transiently transfected into HEK-293FT cells to overexpress recombinant C-terminal Myc-DDK tagged TP53RK and TPRKB by calcium phosphate transfection. The recombinant proteins were immunoprecipitated with anti-DDK agarose beads and subjected to gel chromatography using Superdex 200 sizing column with an HPLC system. TP53RK and TPRKB proteins were co-eluted in the same fraction, whereas the TPRKB single protein was eluted in later fractions.
In vitro TP53RK auto-phosphorylation assay was performed as previously described^2. Briefly, purified recombinant TP53RK and TPRKB proteins (1.5-3 μg/reaction) were incubated with 25 uM [γ-32P]ATP (3000 Ci/mmol, 10 mCi/mL, PerkinElmer, Boston, Mass.) in HEPES buffer (25 mM HEPES (pH 7.5), 100 mM NaCl, 25 mM MgCl2. 2 mM DTT, phosphatase inhibitor mix (Roche) for 30 min at 30° C. The reaction was terminated by adding SDS sample buffer, and reaction mixtures were subjected to SDS-PAGE and autoradiography, as well as Coomassie blue staining.

[9] = test system: p53; assay: p53 DNA binding activity assay; format: cell-based; settings: MM.1S and H929 cells, 48 h
Procedure: E2F1 DNA binding activity was assessed by electrophoretic mobility shift assay (EMSA) using “EMSA Gel Shift Kit®” from Affimetrix (Santa Clara, Calif.), and p53 DNA binding activity was performed using “p53 Transcription Factor Assay Kit®” from Cayman Chemical (Ann Arbor, Mich.). Experiments were carried out according to manufacturer's protocols.

[10] = test system: c-Myc, IKZF1/3; assay: c-Myc and IKZF1/3 expression (immunoblotting, qPCR); format: cell-based
Procedure: (§3) MM cells were harvested and lysed using RIPA-lysis buffer (Boston Bioproducts, Ashland, Mass.) containing 5 mM EDTA, 5 mM NaF, 2 mM Na3VO4, 1 mM PMSF, 5 μg/ml leupeptin, and 5 μg/ml aprotinin. Nuclear proteins were extracted using “Nuclear Extraction Kit” (Affimetrix). After the determination of protein concentration using DC protein assay (Bio-Rad, Hercules, Calif.), β-mercaptoethanol (-ME) was added to the whole-cell lysates to a 2% final concentration. […]
(§4) RNA was extracted using Trizol (Invitrogen) and quantified by a Nanodrop spectrophotometer (Labtech). […] After quantification, 2000 ng of RNA was used to synthesize cDNA via the Superscript II First strand synthesis Kit (Invitrogen), according to the manufacturer's instructions. To evaluate the expression levels of TP53RK, BCL2L11, MYC, Bim, E2F1, TP53, IKZF1, IKZF3, RRM1, p18CDKN2C, PSMB5, PSMB7, PSMA3 and GAPDH, quantitative real time PCR (QRT-PCR) was performed using SYBR GREEN PCR Master Mix (Applied Biosystem), after optimization of the primer conditions. cDNAs were diluted 1:100 or 1:1000 and amplified in a 20 μL reaction. […] Real-time quantitative PCR was performed on ABI Prism 7300 Sequence Detection System (Applied Biosystems). Data were analyzed using the delta delta Ct method. […]

[11] = test system: E2F1; assay: E2F1 DNA binding activity (EMSA), protein and mRNA; format: cell-based; settings: MM cells
Procedure: as §3, §4

[12] = test system: Chk1, ATM, ATR, Chk2; assay: Immunoblotting of DNA damage kinase phosphorylation; format: cell-based; settings: MM.1S cells, 48 h
Procedure: as §1

[13] = test system: proteasome; assay: Proteasome pathway (GSEA, qPCR) and chymotrypsin-like proteasome activity assay; format: cell-based; settings: H929 cells
Procedure: as §2
Expression data for plasma cells from healthy donors, monoclonal gammopathy of undetermined significance (MGUS), and smoldering myeloma (SMM) were derived from GSE5900 dataset, while expression data from normal plasma cells and 65 MM patients were obtained from GSE4452 dataset, using expression profiling on Affymetrix GeneChip (t test, unpaired, equal variance). […] Data were then normalized and analyzed using D-chip software, seeking statistically significant differences among groups or in p53-target gene expression. Statistical significance was determined by Student t test. The minimal level of significance was P<0.05. […] Gene set enrichment analysis (GSEA) was performed as previously described (2) (GSEA v2.0 at http://www.broad.mit.edu/gsea) using gene set as permutation type, as well as 1,000 permutations and signal to noise as metrics for ranking genes.
Proteasome activity was measured by using Proteasome-Glo™ chymotrypsin-like cell-based assay (Promega, Madison, Wis.) according to manufacturer's protocol.

[14] = test system: hTERT; assay: hTERT expression and telomerase activity (TeloTAGGG Telomerase PCR ELISA); format: cell-based; settings: MM.1S cells and H929 cells
Procedure: as §1
Telomerase activity in MM.1S and H929 cells was assessed by “TeloTAGGG Telomerase PCR ELISA®” from Roche Applied Science (Mannheim, Germany).

[15] = MM.1S cells, Nutlin-3a 0.5 μM, 48 h

## CC1(N2C(=O)c3cccc(N)c3C2=O)CCC(=O)NC1=O (centres unmarked) [3′-methyl derivative]
[1]
  activity in B cell growth inhibition relative to pomalidomide: similar
[2]
  activity in co-stimulation of IL-2 production relative to pomalidomide: similar

## CCOc1ccc(C(Nc2ccccn2)c2ccc3ccc(C)nc3c2O)cc1C (centres unmarked) [HLM006474]
[3]; dose-dependent
  IMiDs-induced Bim upregulation: blocked

## COc1ccc(C2=N[C@@H](c3ccc(Cl)cc3)[C@@H](c3ccc(Cl)cc3)N2C(=O)N2CCNC(=O)C2)c(OC(C)C)c1 [Nut3, Nutlin-3a]
[3]; MM.1S cells
  IMiD-triggered PARP cleavage in presence of Nut3: enhanced
  MDM2 and XIAP expression: upregulated
[3]; [15]
  LC3-II upregulation triggered by Len and Pom, in presence of Nut3: markedly downregulated
[4]; [15]
  p-p53 and p53 levels: upregulated

## Nc1cccc2c1C(=O)N(C1CCC(=O)NC1=O)C2=O (centres unmarked) [Pom, pomalidomide]
[5]; H929 cells, 48 h
  drug-triggered growth inhibition in kinase-dead D163A TP53RK transfectants: abrogated
[5]; H929 cells, TP53RK siRNA then Pom 48 h, p<0.02
  Pom-induced MM cell growth inhibition after TP53RK knockdown: enhanced
[5]; MM.1S and H929 cells with wt-p53 versus cell lines with mutant p53
  sensitivity of MM cell lines to drug: more sensitive
[5]; OPM2 cells (mutant p53) and H929 cells (wt-p53)
  drug-triggered cell death after CRBN knock-down: only partially abrogates
[5]; among the IMiDs Thal, Len, Pom
  anti-MM activity: most potent anti-MM activity
[6]
  RRM1 expression: downregulate
  p18CDKN2C expression: upregulate
[3]; MM.1S cells, 2.5 μM, 48 h
  LC3-II level: upregulation
[7]
  TP53RK level: induced downregulation
[8]
  in vitro auto-phosphorylation of TP53RK: markedly downregulated
[9]
  p53 activity (p53 DNA binding): block
[10]; MM.1S cells
  c-Myc transcription (real-time qPCR): decreased transcription
[4]; MM.1S cells
  potency of p-p53/p53 downregulation, Pom versus Len: more potently
[4]; MM.1S cells, 2.5 μM, 48 h
  p53 phosphorylation at Ser20 and Ser37: no change
  phosphorylated (p-Ser15)-p53 and p53 levels: downregulated
[4]; MM.1S cells, 48 h
  downstream p-p53 level: markedly reduced
[4]; MM.1S cells, Len or Pom 2.5 μM with Nutlin-3a 0.5 μM, 48 h
  Nut3-induced upregulation of p-p53 and p53: inhibited
[4]; nuclear extracts from MM.1S and H929 cell lines, patient MM cells
  p-p53/p53 downregulation: further confirmed
[11]
  E2F1: increases
[12]
  phosphorylation of ATM, ATR or Chk2: not
  phosphorylation of Chk1: inhibited
[13]
  chymotrypsin-like proteasome activity: downregulation
  proteasome pathway (GSEA): downregulation
[14]
  hTERT expression: significantly inhibited
  telomerase (hTERT) activity: significantly inhibited

## CCc1cc(C(N)=O)ccc1-n1nc(C(C)C)c2c(-n3cnc(-c4cnn(C)c4)c3)ccnc21 [TAS-116]
[4]; MM.1S cells
  p-p53 modulation on Akt inhibition: in neither case was p-p53 modulation observed

## O=C1CCC(N2C(=O)c3ccccc3C2=O)C(=O)N1 (centres unmarked) [Thal, Thalidomide]
[7]
  TP53RK level: not
[4]; MM.1S cells, 48 h
  downstream p-p53 level: not

## CC(C)C[C@H](NC(=O)[C@H](Cc1ccccc1)NC(=O)c1cnccn1)B(O)O [bortezomib]
[5]; H929 cells, TP53RK siRNA then BTZ 3 nM 24 h, MTT
  cytotoxicity induced by bortezomib after TP53RK knockdown: further enhanced

B1: TP53RK siRNA: SMARTpool of J-003108-09, -10, -11, -12 siRNAs against TP53RK (Table 4) (nucleic acid)
guide 1: GGUAGAAGAAUGUGUAUGA
guide 2: GCUUCCAACUGCUUAUAUA
guide 3: GCUGAACAUUGUGCUCAUA
guide 4: GUACCCAUCCCAACACUGA
modifications: SMARTpool mixture, further chemistry not given here
[5]; H929 cells, siRNA knockdown
  MM cell growth, viable cells by Trypan-blue: triggered MM cell growth inhibition
[5]; MM.1S and H929 cells
  cell growth after knock-down: growth inhibition
[6]
  RRM1 expression: downregulation
  p18CDKN2C expression: upregulation
[7]; H929 cells (also MM.1S)
  CRBN expression after TP53RK knock-down: did not modulate; also recorded: not altered
[7]; MM.1S and H929 cells
  TP53RK mRNA levels: markedly decreased
[10]; MM.1S cells and H929 cells
  IKZF1/3 expression after TP53RK knockdown: markedly downregulated
[13]
  PSMB5 PSMB7 and PSMA3 mRNA: downregulation
  chymotrypsin-like proteasome activity: significantly inhibited
  poly-ubiquitinated proteins: accumulation
  proteasome pathway (GSEA): downregulated
[14]
  hTERT expression: downregulated

B2: CRBN siRNA: SMARTpool of J-021086-9 to -12 siRNAs against CRBN (nucleic acid)
guide 1: CAAUUAGAAUCCCUCAAUA
guide 2: GUAUAAGGCUUGCAACUUG
guide 3: GACAUUACCUCUUCAGCUU
guide 4: CGACUUCGCUGUGAAUUAG
modifications: SMARTpool mixture, further chemistry not given here
notes: SMARTpool of J-021086-9 to -12 siRNAs against CRBN
[7]; H929 cells
  TP53RK expression after CRBN knockdown: did not change
[13]
  chymotrypsin-like proteasome activity: not

— patent US10302644B2, “Compositions and methods for treating multiple myeloma” (Dana-Farber Cancer Institute, Inc., priority 2014, dated 2019)
